Experimental data published in patent US10787452B2 (Vertex Pharmaceuticals Incorporated, priority 2012, dated 2020).

Test system: HCT116 colorectal cancer cells
Assay: Cisplatin sensitization assay (96 h cell viability MTS);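 further: compound concentration needed to lower the Cisplatin-alone IC50 by a set fold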
Type: cell-based
Conditions: 96 h MTS, compound plus Cisplatin
Procedure, shortened: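 Full-matrix combination: compound × cisplatin, 2-fold dilutions from 10 μM top final, co-added; 96 h, 37° C, 5% CO2; MTS read-out after 1 h.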

Structure (SMILES) | Cisplatin Sensitization Assay
CN1CC[C@H](Oc2ccncc2NC(=O)c2c(N)nn3cc(F)cnc23)C1 [I-O-1, (S)-2-amino-6-fluoro-N-(4-((1-methylpyrrolidin-3-yl)oxy)pyridin-3-yl)pyrazolo[1,5-a]pyrimidine-3-carboxamide] | +++ (Compounds with a Cisplatin sensitization value of <0.02 μM are marked with “+++.”)
Nc1nn2cc(F)cnc2c1C(=O)Nc1cnccc1N1CCC2(CC1)COC2 [I-N-226, N-(4-(2-oxa-7-azaspiro[3.5]nonan-7-yl)pyridin-3-yl)-2-amino-6-fluoropyrazolo[1,5-a]pyrimidine-3-carboxamide] | +++ (Compounds with a Cisplatin sensitization value of <0.02 μM are marked with “+++.”)
CCC(C#N)c1cnc2c(C(=O)Nc3cnccc3OC)c(N)nn2c1 (centres unmarked) [I-O-20, 2-amino-6-(1-cyanopropyl)-N-(4-methoxypyridin-3-yl)pyrazolo[1,5-a]pyrimidine-3-carboxamide] | ++ (Compounds with a Cisplatin sensitization value >0.02 μM but <0.2 μM are marked with “++.”)
Cc1ccncc1NC(=O)c1c(N)nn2cc(F)cnc12 [I-C-4, 2-amino-6-fluoro-N-(4-methylpyridin-3-yl)pyrazolo[1,5-a]pyrimidine-3-carboxamide] | ++ (Compounds with a Cisplatin sensitization value >0.02 μM but <0.2 μM are marked with “++.”)
CC(C)(C)Oc1ccncc1NC(=O)c1c(N)nn2cc(F)cnc12 [I-O-88, 2-amino-N-(4-(tert-butoxy)pyridin-3-yl)-6-fluoropyrazolo[1,5-a]pyrimidine-3-carboxamide] | +++ (Compounds with a Cisplatin sensitization value of <0.02 μM are marked with “+++.”)
Nc1nn2cc(F)cnc2c1C(=O)Nc1cnccc1OC1CCS(=O)(=O)CC1 [I-O-45, 2-amino-N-(4-((1,1-dioxidotetrahydro-2H-thiopyran-4-yl)oxy)pyridin-3-yl)-6-fluoropyrazolo[1,5-a]pyrimidine-3-carboxamide] | +++ (Compounds with a Cisplatin sensitization value of <0.02 μM are marked with “+++.”)
CN1CCC(OC2CCN(c3ccncc3NC(=O)c3c(N)nn4cc(F)cnc34)CC2)CC1 [I-N-154, 2-amino-6-fluoro-N-(4-(4-((1-methylpiperidin-4-yl)oxy)piperidin-1-yl)pyridin-3-yl)pyrazolo[1,5-a]pyrimidine-3-carboxamide] | +++ (Compounds with a Cisplatin sensitization value of <0.02 μM are marked with “+++.”)
Nc1nn2cc(F)cnc2c1C(=O)Nc1cncc(F)c1N1CCC(C(=O)N2CC(N3CCCC3)C2)CC1 [I-G-43, 2-amino-6-fluoro-N-(5-fluoro-4-(4-(3-(pyrrolidin-1-yl)azetidine-1-carbonyl)piperidin-1-yl)pyridin-3-yl)pyrazolo[1,5-a]pyrimidine-3-carboxamide] | +++ (Compounds with a Cisplatin sensitization value of <0.02 μM are marked with “+++.”)
COCCS(=O)(=O)C1CCN(c2ccncc2NC(=O)c2c(N)nn3cc(F)cnc23)CC1 [I-N-208, 2-amino-6-fluoro-N-(4-(4-((2-methoxyethyl)sulfonyl)piperidin-1-yl)pyridin-3-yl)pyrazolo[1,5-a]pyrimidine-3-carboxamide] | +++ (Compounds with a Cisplatin sensitization value of <0.02 μM are marked with “+++.”)
Nc1nn2cc(F)cnc2c1C(=O)Nc1cnccc1N1CCC(C(=O)N2CC3(COC3)C2)CC1 [I-G-88, N-(4-(4-(2-oxa-6-azaspiro[3.3]heptane-6-carbonyl)piperidin-1-yl)pyridin-3-yl)-2-amino-6-fluoropyrazolo[1,5-a]pyrimidine-3-carboxamide] | +++ (Compounds with a Cisplatin sensitization value of <0.02 μM are marked with “+++.”)
CN1CCOCC1C(=O)N1CCN(c2c(F)cncc2NC(=O)c2c(N)nn3cc(F)cnc23)CC1 (centres unmarked) [I-N-227, 2-amino-6-fluoro-N-(5-fluoro-4-(4-(4-methylmorpholine-3-carbonyl)piperazin-1-yl)pyridin-3-yl)pyrazolo[1,5-a]pyrimidine-3-carboxamide] | +++ (Compounds with a Cisplatin sensitization value of <0.02 μM are marked with “+++.”)
Nc1nn2cc(F)cnc2c1C(=O)Nc1cncc(F)c1N1CCCCC1 [I-N-270, 2-amino-6-fluoro-N-(5-fluoro-4-(piperidin-1-yl)pyridin-3-yl)pyrazolo[1,5-a]pyrimidine-3-carboxamide] | +++ (Compounds with a Cisplatin sensitization value of <0.02 μM are marked with “+++.”)
Nc1nn2cc(F)cnc2c1C(=O)Nc1cncc(C2CC2)c1N1CCN(C2COC2)CC1 [I-N-32, 2-amino-N-(5-cyclopropyl-4-(4-(oxetan-3-yl)piperazin-1-yl)pyridin-3-yl)-6-fluoropyrazolo[1,5-a]pyrimidine-3-carboxamide] | ++ (Compounds with a Cisplatin sensitization value >0.02 μM but <0.2 μM are marked with “++.”)
CC(=O)N1CCC(c2ccncc2NC(=O)c2c(N)nn3cc(F)cnc23)CC1 [I-C-69, N-(4-(1-acetylpiperidin-4-yl)pyridin-3-yl)-2-amino-6-fluoropyrazolo[1,5-a]pyrimidine-3-carboxamide] | +++ (Compounds with a Cisplatin sensitization value of <0.02 μM are marked with “+++.”)
CC(C)(O)CN1CCN(c2c(F)cncc2NC(=O)c2c(N)nn3cc(F)cnc23)CC1 [I-N-139, 2-amino-6-fluoro-N-(5-fluoro-4-(4-(2-hydroxy-2-methylpropyl)piperazin-1-yl)pyridin-3-yl)pyrazolo[1,5-a]pyrimidine-3-carboxamide] | +++ (Compounds with a Cisplatin sensitization value of <0.02 μM are marked with “+++.”)
N#CCc1cnc2c(C(=O)Nc3cnccc3N3CCCC3)c(N)nn2c1 [I-N-77, 2-amino-6-(cyanomethyl)-N-(4-(pyrrolidin-1-yl)pyridin-3-yl)pyrazolo[1,5-a]pyrimidine-3-carboxamide] | + (Compounds with a Cisplatin sensitization value >0.2 μM but <5 μM are marked with “+.”)
Cc1ccncc1NC(=O)c1c(N)nn2cc(Cl)cnc12 [I-C-2, 2-amino-6-chloro-N-(4-methylpyridin-3-yl)pyrazolo[1,5-a]pyrimidine-3-carboxamide] | ++ (Compounds with a Cisplatin sensitization value >0.02 μM but <0.2 μM are marked with “++.”)
Nc1nn2cc(F)cnc2c1C(=O)Nc1cnccc1N1CCN2C(=O)CC[C@H]2C1 [I-N-217, (S)-2-amino-6-fluoro-N-(4-(6-oxohexahydropyrrolo[1,2-a]pyrazin-2(1H)-yl)pyridin-3-yl)pyrazolo[1,5-a]pyrimidine-3-carboxamide] | ++ (Compounds with a Cisplatin sensitization value >0.02 μM but <0.2 μM are marked with “++.”)
CN1CCN(c2c(NC(=O)c3c(N)nn4cc(F)cnc34)cncc2C(F)F)CC1 [I-N-111, 2-amino-N-(5-(difluoromethyl)-4-(4-methylpiperazin-1-yl)pyridin-3-yl)-6-fluoropyrazolo[1,5-a]pyrimidine-3-carboxamide] | ++ (Compounds with a Cisplatin sensitization value >0.02 μM but <0.2 μM are marked with “++.”)
N#CCc1cnc2c(C(=O)Nc3cnccc3N3CCOC(CN)C3)c(N)nn2c1 (centres unmarked) [I-N-90, 2-amino-N-(4-(2-(aminomethyl)morpholino)pyridin-3-yl)-6-(cyanomethyl)pyrazolo[1,5-a]pyrimidine-3-carboxamide] | + (Compounds with a Cisplatin sensitization value >0.2 μM but <5 μM are marked with “+.”)
